Assay results as given in US6589771B1, “Methods for arousing dormant bacteria” (Immunom Technologies, Inc., priority 1999, dated 2003).

Columns and labels:
[1] = test system: spores of the genera Bacillus and Clostridium; conditions: substance added to the buffer; neutral suspensions heated at 65° C. for 20 minutes; cited from earlier work
L. caseii [2] = assay: Growth of dormant L. caseii on agar with antibiotic after sequential extractions; type: cell-based; conditions: for Growth in presence of 60 IU/mL ampicillin: PBS pH 7.3
Experimental: (§1) A culture containing 100% dormant bacteria was microfuged and the supernatant replaced with an equal volume of PBS, pH 7.3 and incubated at 37° C. After 20 minutes, the pellet was again recovered by centrifugation and resuspended in fresh PBS.
A 2 year old dormant broth culture of L. caseii was centrifuged and the supernatant replaced with an equal volume of Dulbeccos' PBS, 1× or 4× at pH 7.3, or water for 20 min. followed by different periods of adjustment at 37° C.

L. plantarum ATCC 14917 = assay: Dialysis of dormant L. plantarum ATCC 14917, tolerance to antibiotic; type: cell-based; conditions: retentate after four changes of 250 volumes of PBS, 44 hrs. of dialysis, no adjustment period
L. monocytogenes [3] = assay: L. monocytogenes arousal by serial dilutions in PBS, growth on antibiotic agar; type: cell-based; conditions: PBS pH 7.3
L. caseii [4] = assay: Dialysis plus dilution of dormant L. caseii, growth in presence of antibiotic; type: cell-based; conditions: for Growth in presence of 60 IU Amp/mL: dialysis, 18 hrs. adjustment period
P. aeruginosa = assay: Growth of duplex culture of P. aeruginosa with antibiotic after sequential extractions; type: cell-based; conditions: Dulbecco's PBS pH 7.3
Experimental: Separate cultures containing both dormant and vegetative cells of P. aeruginosa or E. coli were centrifuged and the pellets resuspended in an equal amount of Dulbecco's PBS pH 7.3 for serial extractions of 20 min. followed by different periods of adjustment at 37° C.

L. monocytogenes [5] = assay: Growth (CFUs/mL or grow-out hrs.) of dormant L. monocytogenes on agar with antibiotic after sequential PBS extractions; type: cell-based; conditions: for Growth in presence of ampicillin: PBS pH 7.3
Experimental: as §1
A 4 year old dormant broth culture of L. monocytogenes was centrifuged and the supernatant replaced with an equal volume of Dulbecco's PBS, 1×, 4×, or 10×, pH 7.3 or 6.1 for 10, 20, or 40 min. extraction periods, followed by different periods of adjustment at 37° C. This was repeated and the pellets held for various times in buffer (adjustment period) before plating on agar. Inoculated agars were held at 37° C. for various lengths of time (grow-out period).

L. monocytogenes [6] = assay: Dialysis plus dilution of dormant L. monocytogenes, growth in presence of antibiotic; type: cell-based; conditions: 18 hrs. adjustment period
Experimental: An aliqout of culture was dialyzed against 250 volumes of PBS, pH 7.3 at 37° C. with stirring for 40 min. After an adjustment period of 18 hrs., the retentate was diluted serially 1:5 in PBS, pH 7.3, and streaked on agar.

L. monocytogenes [7] = assay: Antibiotic tolerance of vegetative and aroused dormant L. monocytogenes (classification); type: cell-based; conditions: both native vegetative and aroused dormant cells
S. aureus = assay: Vancomycin tolerance of aroused dormant and vegetative S. aureus; type: cell-based; conditions: aroused dormant forms after heat-killing of vegetative forms
Excerpt: Dormant cells of S. aureus could be enumerated and classified in the presence of their vegetative forms by heat-killing the sensitive vegetative forms while preserving the more resistant dormant forms. […] Before heating, 4×10^7 CFUs/mL were viable, after heating, no viable cells were detected until the dormant cells were aroused by osmolal downshift gradients.

[8] = dilution after adjustment 1:125
[9] = dilution after adjustment: None

Compound: C[C@H](N)C(=O)O [L-alanine]
- spores that germinate [1]: 100%

Compound: N[C@@H](Cc1ccc(O)cc1)C(=O)O [L-tyrosine]
- spores that germinate [1]: 100%

Compound: Nc1ncnc2c1ncn2[C@@H]1O[C@H](CO)[C@@H](O)[C@H]1O [adenosine]
- spores that germinate [1]: 100%

Compound: CC1(C)S[C@@H]2[C@H](NC(=O)[C@H](N)c3ccccc3)C(=O)N2[C@H]1C(=O)O [ampicillin]
- Growth in presence of 60 IU amp/mL (L. caseii [2]; L. caseii ATCC 393, Dulbecco's PBS pH 7.3, 7 × 20 min., adjustment time 144 hrs.): 48 h
- Growth in presence of 60 IU/mL ampicillin (L. caseii [2]; 1st-5th 20 min. extraction): 0 CFUs/mL
- Growth in presence of 60 IU/mL ampicillin (L. caseii [2]; 6th 20 min. + 72 hrs. @ 37° C.): 0 CFUs/mL
- Growth in presence of 60 IU/mL ampicillin (L. caseii [2]; 6th 20 min. + 96 hrs. @ 37° C.): 0 CFUs/mL
- Growth in presence of 60 IU/mL ampicillin (L. caseii [2]; Control (no extraction)): 0 CFUs/mL
- Tolerance to ampicillin (L. plantarum ATCC 14917): not tolerant
- Periods of adjustment required for growth on: 60 IU Amp (L. monocytogenes [3]; serial dilutions 1:10): 144 h
- Periods of adjustment required for growth on: 60 IU Amp (L. monocytogenes [3]; serial dilutions 1:100): 144 h
- Periods of adjustment required for growth on: 60 IU Amp (L. monocytogenes [3]; serial dilutions 1:125): 144 h
- Periods of adjustment required for growth on: 60 IU Amp (L. monocytogenes [3]; serial dilutions 1:1000): 144 h
- Tolerance to ampicillin (L. caseii [4]; L. caseii ATCC 393 aroused by dialysis pH 7.3, dilutions 1:5 and 1:5, adjustment period 124 hours at 37° C.): not tolerant
- Growth in presence of 60 IU Amp/mL (L. caseii [4]; dilution after adjustment 1:5): 0 CFUs/mL
- Growth in presence of 60 IU Amp/mL (L. caseii [4]; dilution after adjustment 1:25): 0 CFUs/mL
- Growth in presence of 60 IU Amp/mL (L. caseii [4]; [8]): 0 CFUs/mL
- Growth in presence of 60 IU Amp/mL (L. caseii [4]; [9]): 0 CFUs/mL
- Growth in presence of 60 IU amp/mL (P. aeruginosa; 3 × 20 min., adjustment time 24 hrs.): 72 h
- Growth in presence of 60 IU amp/mL (P. aeruginosa; 6 × 20 min., adjustment time 0 hrs.): 48 h
- Growth in presence of 60 IU amp/mL (L. monocytogenes [5]; Dulbecco's 4X PBS pH 7.3, 3 × 20 min., adjustment time 48 hrs.): 24 h
- Growth in presence of 60 IU amp/mL (L. monocytogenes [5]; Dulbecco's 4X PBS pH 7.3, 3 × 20 min., adjustment time 72 hrs.): 24 h
- Growth in presence of 60 IU amp/mL (L. monocytogenes [5]; Dulbecco's 10X PBS pH 7.3, 3 × 20 min., adjustment time 48 hrs.): 24 h
- Growth in presence of 60 IU amp/mL (L. monocytogenes [5]; Dulbecco's 10X PBS pH 7.3, 3 × 20 min., adjustment time 72 hrs.): 24 h
- Growth in presence of 60 IU amp/mL (L. monocytogenes [5]; Dulbecco's PBS pH 6.1, 5 × 20 min., adjustment time 120 hrs.): 24 h
- Growth in presence of 60 IU amp/mL (L. monocytogenes [5]; Dulbecco's PBS pH 6.1, 7 × 20 min., adjustment time 96 hrs.): 24 h
- Growth in presence of 60 IU amp/mL (L. monocytogenes [5]; Dulbecco's PBS pH 7.3, 1 × 20 min., adjustment time 0 hrs.): 48 h
- Growth in presence of 60 IU amp/mL (L. monocytogenes [5]; Dulbecco's PBS pH 7.3, 3 × 20 min., adjustment time 0 hrs.): 48 h
- Growth in presence of 60 IU amp/mL (L. monocytogenes [5]; Dulbecco's PBS pH 7.3, 3 × 20 min., adjustment time 48 hrs.): 48 h
- Growth in presence of 60 IU amp/mL (L. monocytogenes [5]; Dulbecco's PBS pH 7.3, 3 × 20 min., adjustment time 72 hrs.): 48 h
- Growth in presence of 60 IU amp/mL (L. monocytogenes [5]; Dulbecco's PBS pH 7.3, 3 × 40 min., adjustment time 96 hrs.): 24 h
- Growth in presence of 60 IU amp/mL (L. monocytogenes [5]; Dulbecco's PBS pH 7.3, 5 × 10 min., adjustment time 96 hrs.): 24 h
- Growth in presence of 60 IU amp/mL (L. monocytogenes [5]; Dulbecco's PBS pH 7.3, 6 × 10 min., adjustment time 0 hrs.): 48 h
- Growth in presence of 60 IU amp/mL (L. monocytogenes [5]; Dulbecco's PBS pH 7.3, 6 × 20 min., adjustment time 0 hrs.): 48 h
- Growth in presence of 60 IU amp/mL (L. monocytogenes [5]; Dulbecco's PBS pH 7.3, 6 × 20 min., adjustment time 48 hrs.): 48 h
- Growth in presence of 60 IU amp/mL (L. monocytogenes [5]; Dulbecco's PBS pH 7.3, 6 × 20 min., adjustment time 72 hrs.): 48 h
- Growth in presence of 60 IU amp/mL (L. monocytogenes [5]; Dulbecco's PBS pH 7.3, 7 × 40 min., adjustment time 96 hrs.): 48 h
- Growth in presence of 60 IU amp/mL (L. monocytogenes [5]; Dulbecco's PBS pH 7.3, 9 × 20 min., adjustment time 0 hrs.): 48 h
- Growth in presence of 60 IU amp/mL (L. monocytogenes [5]; Dulbecco's PBS pH 7.3, 9 × 20 min., adjustment time 48 hrs.): 48 h
- Growth in presence of 60 IU amp/mL (L. monocytogenes [5]; Dulbecco's PBS pH 7.3, 9 × 20 min., adjustment time 72 hrs.): 48 h
- Growth in presence of ampicillin (L. monocytogenes [5]; 1st 20 min. extraction): 10^4 CFUs/mL
- Growth in presence of ampicillin (L. monocytogenes [5]; 2nd 20 min. extraction): 10^4 CFUs/mL
- Growth in presence of ampicillin (L. monocytogenes [5]; 3rd 20 min. extraction): 10^4 CFUs/mL
- Growth in presence of ampicillin (L. monocytogenes [5]; 4th 20 min. extraction): 10^5 CFUs/mL
- Growth in presence of ampicillin (L. monocytogenes [5]; 5th 20 min. extraction): 10^5 CFUs/mL
- Growth in presence of ampicillin (L. monocytogenes [5]; 6th 20 min. extraction): 10^5 CFUs/mL
- Growth in presence of ampicillin (L. monocytogenes [5]; Control (no extraction)): 0 CFUs/mL
- Growth in presence of 60 IU Amp/mL (L. monocytogenes [6]; dilution after adjustment 1:5): 10^4 CFUs/mL
- Growth in presence of 60 IU Amp/mL (L. monocytogenes [6]; dilution after adjustment 1:25): 10^5 CFUs/mL
- Growth in presence of 60 IU Amp/mL (L. monocytogenes [6]; [8]): 10^5 CFUs/mL
- Growth in presence of 60 IU Amp/mL (L. monocytogenes [6]; [9]): 10^3 CFUs/mL
- Tolerance to 60 IU of ampicillin per mL (L. monocytogenes [7]): tolerant

Compound: CN(C)[C@@H]1C(O)=C(C(N)=O)C(=O)[C@@]2(O)C(O)=C3C(=O)c4c(O)cccc4[C@@](C)(O)[C@H]3C[C@@H]12 [tetracycline]
- Periods of adjustment required for growth on: 30 μg TC (L. monocytogenes [3]; serial dilutions 1:10): 144 h
- Periods of adjustment required for growth on: 30 μg TC (L. monocytogenes [3]; serial dilutions 1:100): 144 h
- Periods of adjustment required for growth on: 30 μg TC (L. monocytogenes [3]; serial dilutions 1:1000): 144 h

Compound: CN[C@H](CC(C)C)C(=O)N[C@H]1C(=O)N[C@@H](CC(N)=O)C(=O)N[C@H]2C(=O)N[C@H]3C(=O)N[C@H](C(=O)N[C@H](C(=O)O)c4cc(O)cc(O)c4-c4cc3ccc4O)[C@H](O)c3ccc(c(Cl)c3)Oc3cc2cc(c3O[C@@H]2O[C@H](CO)[C@@H](O)[C@H](O)[C@H]2O[C@H]2C[C@](C)(N)[C@H](O)[C@H](C)O2)Oc2ccc(cc2Cl)[C@H]1O [vancomycin]
- Tolerance to 30 μg vancomycin/mL (S. aureus): showed tolerance
